{"source": "patent EP0393640B1", "about": "“A monoclonal antibody recognizing C-terminus of ANP” (SHIONOGI SEIYAKU KABUSHIKI KAISHA trading under the name of …, priority 1989, dated 1990)", "format_in_all_cases": "binding, mouse", "key": {"[1]": {"test_system": "AN111 as an immobilized antibody, ¹²⁵I-labelled KY-ANP-I", "assay": "Cross-reactivity of ANP-related peptides in the sandwich radioimmunoassay (one-step)", "conditions": "one-step assay, AN111 immobilized on beads", "excerpt": "Anti-α-ANP [17-28] monoclonal antibody produced by the above hybridoma clone AN111 or AN117 (the antibody is hereinafter referred to as AN111 or AN117) which was immobilized on beads was used as an immobilized antibody. As a labelled antibody, anti-α-hANP [1 -28] monoclonal antibody produced by hybridoma clone KY-ANP-I (ECACC 87082001, EP-A-0 306 309) (the antibody is hereinafter referred to as KY-ANP-I) which was labelled with 125I was used. By the above antibodies, a sandwich radioimmunoassay of α-hANP was established. In 0.05 M phosphate buffer (pH 7.4) containing the IgG fraction (100 »g/ml) of A[…] or A[…] prepared in Item 1 above are immersed polystyrene beads (Ichico, 3.2 mm diameter) and allowed to stand at 4 °C for 20 hr. […] Radioactivity of 125 I -labelled antibody bound to the solid phase was measured by a gamma counter. A standard curve was prepared by plotting a concentration of α-hANP standard at abscissa and the measured radioactivity at ordinate. An ANP concentration in plasma was calculated by applying the radioactivity from the plasma sample to the standard curve. […]"}, "[2]": {"test_system": "AN111", "assay": "Cross-reactivity of ANP-related polypeptides in the α-hANP radioimmunoassay with AN111", "conditions": "ascitic fluid AN111A", "experimental": "(§1) Using peptide and peptide fragment relating to α-hANP as a sample in α-hANP radioimmunoassay to be described in Example 5, cross reactivity was measured. It was confirmed that both of AN111 and AN117 recognize the C-terminus of α-hANP. Table 1 Assay buffer solution : 0.1 M phosphate buffer solution (pH 7.0) containing 0.372 g of disodium ethylenediamine tetraacetate, 0.063 g of cystine dihydrochloride, 0.262 g of ε-aminocaproic acid, 0.1g of sodium azide and 1 g of bovine serum albumin per liter. Dilute ascitic fluid : A[…] 110,000-fold diluted with Assay buffer solution or A[…] 62,000-fold diluted with Assay buffer solution. α-hANP standard : α-hANP serially two-fold diluted at a range of concentrations from 3.13 ng/ml to 100 ng/ml. 125 I -labelled α-hANP : 125I-labelled α-hANP (Amersham) diluted with Assay buffer solution up to approximately 3.7 KBq/ml. 1 % Bovine gamma globulin : dissolved in Assay buffer solution 37.5 % Polyethylene glycol : polyethylene glycol 6000 dissolved in Assay buffer solution without bovine serum albumin To a tube charged with 100 »l of α-hANP standard or a sample, 100 »l of 125I-labelled α-hANP, 100 »l of dilute ascitic fluid and 200 »l of 1 % bovine gamma globulin were added and the mixture was incubated overnight at 4 °C. […] After removing the supernatant, the radioactivity of the precipitate is measured by a gamma counter (Aloka, ARC-600 type)"}, "[3]": {"test_system": "AN117", "assay": "Cross-reactivity of ANP-related polypeptides in the α-hANP radioimmunoassay with AN117", "conditions": "ascitic fluid AN117A", "experimental": "as §1"}}, "note": "Ends that are not written are not given here.", "data": [{"substance": "β-hANP: antiparallel dimer of α-hANP (SLRRSSCFGGRMDRIGAQSGLGCNSFRY; ends and bridges not checked; also: antiparallel dimer of α-hANP; UniProt P01160 124-151, looked up)", "values": [{"measurement": "Cross-Reactivity (Molar %)", "setting": "[1]", "result": 100, "unit": "Molar %"}, {"measurement": "Cross-reactivity (%) AN111", "setting": "[2]", "result": 142, "unit": "%"}, {"measurement": "Cross-reactivity (%) AN117", "setting": "[3]", "result": 136, "unit": "%"}]}]}
